System: old rats
Test: Dietary polyphenol supplementation for 3 months in 20 months-old rats: muscle mass and muscle fiber area (immunofluorescence staining and microscopy)
Assay type: in vivo
Details: supplemented diet for 3 months, compared with control and rutin groups
Excerpt: 20 months-old rats were fed either a control diet or the same diet supplemented with curcumin or rutin or oleuropein for 3 months. CON=control diet, RUT=control diet with rutin, OLE=control diet with oleuropein and CUR=control diet with curcumin. Old rats are a good model to assess the effect of nutritional intervention in age related muscle decline. With this model, it can be observed as in human a decrease in muscle mass and function and a change in muscle quality with age. The objective of the study was to determine the effects of curcumin, oleuropein and rutin on muscle quality in old rats and the association with muscle mass. 20 months-old rats have been divided in four groups and received a complete diet supplemented with either curcumin (CUR), oleuropein (OLE) or rutin (RUT) for 3 months. A control group (CON) received cellulose instead of polyphenols. Fiber type was analyzed in muscle by immunofluorescence staining and microscopy. Exact Wilcoxon test associated with Hodges-Lehmann to estimate the difference between groups and Kolmogorov-Smirnov test to assess the difference for the distribution have been performed for statistical analysis.

COc1cc(/C=C/C(=O)CC(=O)/C=C/c2ccc(O)c(OC)c2)ccc1O [CUR, curcumin]
amount of small fibers area (percentage of cells with an area below 700 μm^2, FIG. 3B): lower
fiber crossectionnal area (FIG. 3A): higher
muscle mass: higher

Source: patent US20200390793A1, “COMPOSITIONS AND METHODS USING OLEUROPEIN OR CURCUMIN FOR MUSCLE QUALITY AND/OR MUSCLE MASS” (SOCIETE DES PRODUITS NESTLE S.A., priority 2017, published 2020)
